US20250171459A1, “2-METHYL-4',5'-DIHYDROSPIRO[PIPERIDINE-4,7'-THIENO[2,3-C]PYRAN] DERIVATIVES AS INHIBITORS OF APOL1 AND METHODS OF USING SAME” (Vertex Pharmaceuticals Incorporated, priority 2022, published 2025)

Each compound was assayed against T1, APOL1 (Homo sapiens, UniProt O14791) (assay: MultiTox-Fluor Multiplex Cytotoxicity Assay in tet-inducible APOL1 T-REx-HEK293 cells (cell rescue, ratio of dead to live cells)). Conditions: tet-inducible transgenic APOL1 T-REx-HEK293 cell lines, 50 ng/mL tet, 24 hours; read-out: IP50 (i.e., IC50 for cell proliferation).
T1 sequence (O14791 1-398 S342G/I384M): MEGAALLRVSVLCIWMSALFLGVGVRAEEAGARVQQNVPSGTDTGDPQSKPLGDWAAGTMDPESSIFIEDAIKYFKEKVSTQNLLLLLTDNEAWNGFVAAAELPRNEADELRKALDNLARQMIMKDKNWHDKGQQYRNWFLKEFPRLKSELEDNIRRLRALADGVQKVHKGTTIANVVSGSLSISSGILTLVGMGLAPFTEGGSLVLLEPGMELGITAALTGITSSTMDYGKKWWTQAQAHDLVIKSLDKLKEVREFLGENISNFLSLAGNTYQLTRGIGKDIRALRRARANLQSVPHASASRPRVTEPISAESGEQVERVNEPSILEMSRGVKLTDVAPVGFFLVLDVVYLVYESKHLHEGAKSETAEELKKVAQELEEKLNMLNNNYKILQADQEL
Type: cell-based
Method in brief: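 T-REx-HEK293 cells with tet-inducible APOL1 were treated with compound (10 μM top, 10-point 3-fold dilution, duplicate) plus 50 ng/mL tetracycline for 24 h at 37° C, in DMEM with 2% tet-free FBS. MultiTox-Fluor protease signals gave a dead/live ratio, normalized to no tet (100% viability) and tet alone (0%).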

Question: `CCc1cc2c(s1)CCOC21CCN(Cc2cn(Cc3ccc[nH]c3=O)nn2)CC1` [Compound 1125] was tested. Which IC50 did it give?
Answer: 500 to 1000 nM

Question: Which IC50 does the source give for `COCc1c(C(F)F)sc2c1CCO[C@@]21CCN(Cc2cnn(CCS(C)(=O)=O)c2)[C@@H](C)C1` [Compound 763, (2′S, 7R)-2-(difluoromethyl)-3-(methoxymethyl)-2′-methyl-1′-[[1-(2-methylsulfonylethyl)pyrazol-4-yl]methyl]spiro[4,5-dihydrothieno[2,3-c]pyran-7,4′-piperidine]] here?
Answer: < 100 nM

Question: With `CCc1cc2c(s1)CCO[C@@]21CCN(CC2CN(C(=O)CC3CS(=O)(=O)C3)C2)[C@@H](C)C1` [Compound 450] as the compound, how does the IC50 read?
Answer: 100 to 500 nM

Question: For `CCc1cc2c(s1)CCO[C@@]21CCN(CC2CN(C(=O)c3ncon3)C2)[C@@H](C)C1` [Compound 474], which IC50 is on record?
Answer: < 100 nM

Question: For `CCc1cc2c(s1)CCO[C@@]21CCN(Cc2cn(CCSCCO)nn2)[C@@H](C)C1` [Compound 23], which IC50 is on record?
Answer: < 100 nM

Question: `CCNC(=O)CCn1cc(CN2CC[C@]3(C[C@@H]2C)OCCc2c3sc(C(F)(F)F)c2CO)cn1` [Compound 900] was tested. Which IC50 did it give?
Answer: < 100 nM

Question: With `CCc1cc2c(s1)CCOC21CCN(CC2CCN(C(=O)OC(C)(C)C)CC2)CC1` [Compound 1150] as the compound, how does the IC50 read?
Answer: 500 to 1000 nM

Question: With `CCc1cc2c(s1)CCO[C@@]21CCN(C[C@H]2C[C@@H](NS(=O)(=O)c3ccc4[nH]c(=O)[nH]c4c3)C2)[C@@H](C)C1` [Compound 416] as the compound, how does the IC50 read?
Answer: 100 to 500 nM

Question: For `C[C@H]1C[C@@]2(CCN1Cc1ncn3ccccc13)OCCc1cc(Cl)sc12` [Compound 686], which IC50 is on record?
Answer: 500 to 1000 nM

Question: For `CCc1cc2c(s1)CCOC21CCN(Cc2cn(CC(C)(CO)COC)nn2)C(C)C1` (centres unmarked) [Compound 101], which IC50 is on record?
Answer: 100 to 500 nM

Question: Which IC50 does the source give for `CCc1cc2c(s1)CCO[C@@]21CCN(Cc2c[nH]nn2)[C@@H](C)C1` [Compound 8, (2′S,4R)-2-ethyl-2′-methyl-1′-(1H-triazol-4-ylmethyl)spiro[6,7-dihydrothieno[3,2-c]pyran-4,4′-piperidine]] here?
Answer: < 100 nM

Question: For `CCc1cc2c(s1)CCO[C@@]21CCN(Cc2cn(C3CCN(S(C)(=O)=O)C3)nn2)[C@@H](C)C1` (some centres unmarked) [Compound 30], which IC50 is on record?
Answer: 100 to 500 nM

Question: Which IC50 does the source give for `Cc1cc2c(s1)CCO[C@@]21CCN(Cc2cn(CCS(C)(=O)=O)nn2)[C@@H](C)C1` [Compound 510, (2′S)-2,2′-dimethyl-1′-[[1-(2-methylsulfonylethyl)triazol-4-yl]methyl]spiro[6,7-dihydrothieno[3,2-c]pyran-4,4′-piperidine]] here?
Answer: < 100 nM

Question: `CCc1cc2c(s1)CCOC21CCN(Cc2ccc(C(=O)NCCO)nc2)CC1` [Compound 1056] was tested. Which IC50 did it give?
Answer: 100 to 500 nM

Question: Which IC50 does the source give for `CCc1cc2c(s1)CCO[C@@]21CCN(Cc2cn(CC(C)n3cncn3)nn2)[C@@H](C)C1` (some centres unmarked) [Compound 58] here?
Answer: 100 to 500 nM

Question: With `C[C@H]1C[C@@]2(CCN1Cc1cncnc1)OCCc1cc(CC(F)F)sc12` [Compound 567] as the compound, how does the IC50 read?
Answer: < 100 nM

Question: `CCc1cc2c(s1)CCOC21CCN(Cc2cnc(NC3CC3OC)nc2)CC1` (centres unmarked) [Compound 1076] was tested. Which IC50 did it give?
Answer: 100 to 500 nM

Question: `CCc1cc2c(s1)CCO[C@@]21CCN(Cc2cn([C@H]3C[C@H](O)C3)nn2)[C@@H](C)C1` [Compound 151] was tested. Which IC50 did it give?
Answer: < 100 nM

Question: With `CCc1cc2c(s1)CCO[C@@]21CCN(C[C@H]2C[C@@H](NC(=O)c3ccc4cn[nH]c4c3)C2)[C@@H](C)C1` [Compound 307] as the compound, how does the IC50 read?
Answer: < 100 nM

Question: With `CCc1cc2c(s1)CCO[C@@]21CCN(C[C@H]2C[C@@H](NC(=O)C(O)C(F)(F)F)C2)[C@@H](C)C1` (some centres unmarked) [Compound 339] as the compound, how does the IC50 read?
Answer: < 100 nM

Question: How did the IC50 turn out when `CCc1cc2c(s1)CCOC21CCN(Cc2cn(CCC(=O)NCCC(F)(F)F)nn2)CC1` [Compound 1100] was run?
Answer: 500 to 1000 nM

Question: For `CCc1cc2c(s1)CCOC21CCN(Cc2cn(CC(C)CO)nn2)C(C)C1` (centres unmarked) [Compound 82], which IC50 is on record?
Answer: 100 to 500 nM

Question: Which IC50 does the source give for `CCc1cc2c(s1)CCO[C@@]21CCN(Cc2cnn(CCS(C)(=O)=O)c2)[C@@H](C)C1` [Compound 268] here?
Answer: < 100 nM
